Reference: ChEMBL document CHEMBL5370593, “Discovery and In Vitro Characterization of SPL028: Deuterated N,N-Dimethyltryptamine” (ACS Med Chem Lett, 2023)
Calls of active or inactive are those of the source. The rule behind the calls is not given here.

Experiments:
[1] = target: T1, 5-hydroxytryptamine receptor 7 (Homo sapiens, UniProt P34969); experiment: Displacement of [3H] LSD from human recombinant 5-HT7 receptor expressed in CHO-K1 cells at 10 uM incubated for 120 mins by spectrophotometric analysis relative to control; assay type: cell-based
T1 sequence (P34969 whole entry): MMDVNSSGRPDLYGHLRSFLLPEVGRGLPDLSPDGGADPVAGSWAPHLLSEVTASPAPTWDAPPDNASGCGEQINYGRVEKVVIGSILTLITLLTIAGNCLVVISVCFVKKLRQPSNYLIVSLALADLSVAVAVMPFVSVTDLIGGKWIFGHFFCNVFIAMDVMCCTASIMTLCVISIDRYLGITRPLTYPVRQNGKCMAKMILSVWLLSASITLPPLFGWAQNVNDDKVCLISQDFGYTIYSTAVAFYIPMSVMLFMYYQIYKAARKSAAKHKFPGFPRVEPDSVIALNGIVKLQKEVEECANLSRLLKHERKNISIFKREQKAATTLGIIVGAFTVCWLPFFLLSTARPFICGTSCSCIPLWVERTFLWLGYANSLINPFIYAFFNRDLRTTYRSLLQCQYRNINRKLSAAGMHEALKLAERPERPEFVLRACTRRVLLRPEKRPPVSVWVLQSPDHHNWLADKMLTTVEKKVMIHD

[2] = target: 5-hydroxytryptamine receptor 2B (Homo sapiens) (UniProt P41595); experiment: Displacement of [3H] LSD from human recombinant 5-HT2B receptor expressed in CHO-K1 cells at 10 uM incubated for 60 mins by spectrophotometric analysis relative to control; assay type: cell-based
[3] = target: Alpha-1D adrenergic receptor (Homo sapiens) (UniProt P25100); experiment: Displacement of [3H] prazosin from human recombinant adrenergic alpha-1d receptor expressed in HEK293 cells at 10 uM incubated for 60 mins by spectrophotometric analysis relative to control; assay type: cell-based
Sequence of Alpha-1D adrenergic receptor (Homo sapiens) (P25100 whole entry): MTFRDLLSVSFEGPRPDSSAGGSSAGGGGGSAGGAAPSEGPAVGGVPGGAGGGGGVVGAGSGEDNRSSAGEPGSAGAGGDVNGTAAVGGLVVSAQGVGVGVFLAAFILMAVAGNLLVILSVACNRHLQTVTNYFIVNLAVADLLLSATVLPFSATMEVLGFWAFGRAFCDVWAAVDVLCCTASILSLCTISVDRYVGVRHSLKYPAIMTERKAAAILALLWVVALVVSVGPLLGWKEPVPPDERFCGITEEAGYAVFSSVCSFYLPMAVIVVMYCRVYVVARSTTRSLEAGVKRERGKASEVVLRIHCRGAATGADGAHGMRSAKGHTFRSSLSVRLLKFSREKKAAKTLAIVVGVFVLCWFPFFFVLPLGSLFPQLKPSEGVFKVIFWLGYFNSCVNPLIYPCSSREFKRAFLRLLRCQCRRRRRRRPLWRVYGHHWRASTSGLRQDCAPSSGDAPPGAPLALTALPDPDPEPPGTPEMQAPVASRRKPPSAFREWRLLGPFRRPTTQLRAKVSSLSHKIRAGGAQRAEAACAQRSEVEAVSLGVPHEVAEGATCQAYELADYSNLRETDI

[4] = Metabolic stability in human liver mitochondrial fraction assessed as mean half life measured per million cells incubated upto 60 mins by LC-MS/MS analysis; assay type: ADME, mitochondria, Mitochondria
[5] = Metabolic stability in human hepatocytes assessed as intrinsic clearance measured per million cells incubated upto 60 mins by LC-MS/MS analysis; assay type: ADME, cell-based, Hepatocyte; settings: read-out: CLH
[6] = Distribution coefficient, mean logD of compound at pH 7.4 in octanol and aqueous solution incubated for 95 mins under shaking condition by LC-MS/MS analysis; assay type: physicochemical
[7] = target: 5-hydroxytryptamine receptor 1A (Homo sapiens) (UniProt P08908); experiment: Displacement of [3H] 8-OH-DPAT from human recombinant 5-HT1A receptor expressed in CHO-K1 cells at 10 uM incubated for 60 mins by spectrophotometric analysis relative to control; assay type: cell-based
Sequence of 5-hydroxytryptamine receptor 1A (Homo sapiens) (P08908 whole entry): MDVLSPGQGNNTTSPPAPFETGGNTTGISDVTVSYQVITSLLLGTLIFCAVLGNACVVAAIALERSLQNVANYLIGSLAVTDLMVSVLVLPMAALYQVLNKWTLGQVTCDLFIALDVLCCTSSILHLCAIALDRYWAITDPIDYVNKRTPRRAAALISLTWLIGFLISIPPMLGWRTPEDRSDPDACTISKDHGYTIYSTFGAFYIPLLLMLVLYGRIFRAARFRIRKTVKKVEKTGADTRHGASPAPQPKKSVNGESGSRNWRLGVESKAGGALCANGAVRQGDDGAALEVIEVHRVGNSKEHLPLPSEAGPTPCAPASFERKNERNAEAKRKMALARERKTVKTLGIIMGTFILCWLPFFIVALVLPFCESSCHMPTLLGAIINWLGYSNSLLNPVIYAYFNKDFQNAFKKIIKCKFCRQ

[8] = target: Histamine H1 receptor (Homo sapiens) (UniProt P35367); experiment: Displacement of [3H] pyrilamine from human recombinant histamine H1 receptor expressed in CHO-K1 cells at 10 uM incubated for 180 mins by spectrophotometric analysis relative to control; assay type: cell-based
[9] = target: Alpha-1B adrenergic receptor (Homo sapiens) (UniProt P35368); experiment: Displacement of [3H] prazosin from human recombinant adrenergic alpha-1b receptor expressed in […] cells at 10 uM incubated for 60 mins by spectrophotometric analysis relative to control; assay type: cell-based
Sequence of Alpha-1B adrenergic receptor (Homo sapiens) (P35368 whole entry): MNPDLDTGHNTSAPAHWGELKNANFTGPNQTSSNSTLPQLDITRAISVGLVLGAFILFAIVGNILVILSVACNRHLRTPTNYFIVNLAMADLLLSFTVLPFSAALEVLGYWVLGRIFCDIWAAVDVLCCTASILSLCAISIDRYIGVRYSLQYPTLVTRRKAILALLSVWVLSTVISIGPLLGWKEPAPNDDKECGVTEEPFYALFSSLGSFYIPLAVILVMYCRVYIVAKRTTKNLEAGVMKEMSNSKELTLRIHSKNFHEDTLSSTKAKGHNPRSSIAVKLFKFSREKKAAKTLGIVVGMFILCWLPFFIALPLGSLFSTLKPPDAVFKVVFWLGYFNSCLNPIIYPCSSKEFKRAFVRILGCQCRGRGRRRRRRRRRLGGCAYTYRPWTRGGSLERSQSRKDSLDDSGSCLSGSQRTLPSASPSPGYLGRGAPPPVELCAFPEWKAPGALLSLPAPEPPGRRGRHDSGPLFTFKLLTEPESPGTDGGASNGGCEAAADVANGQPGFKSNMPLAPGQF

[10] = target: 5-hydroxytryptamine receptor 6 (Homo sapiens, UniProt P50406); experiment: Displacement of [3H] LSD from human recombinant 5-HT6 receptor expressed in human HeLa cells at 10 uM incubated for 120 mins by spectrophotometric analysis relative to control; assay type: cell-based
[11] = target: Alpha-1A adrenergic receptor (Homo sapiens) (UniProt P35348); experiment: Displacement of [3H] prazosin from human recombinant adrenergic alpha-1a receptor expressed in […] cells at 10 uM incubated for 60 mins by spectrophotometric analysis relative to control; assay type: cell-based
[12] = target: Alpha-2B adrenergic receptor (Homo sapiens) (UniProt P18089); experiment: Displacement of [3H]-rauwolscine from human recombinant adrenergic alpha-2b receptor expressed in […] cells at 10 uM incubated for 60 mins by […] relative to control; assay type: cell-based
[13] = target: T2, 5-hydroxytryptamine receptor 1B (Homo sapiens, UniProt P28222); experiment: Displacement of [3H] GR125743 from human recombinant 5-HT1B receptor expressed in […] cells at 10 uM incubated for 90 mins by spectrophotometric analysis relative to control; assay type: cell-based
T2 sequence (P28222 whole entry): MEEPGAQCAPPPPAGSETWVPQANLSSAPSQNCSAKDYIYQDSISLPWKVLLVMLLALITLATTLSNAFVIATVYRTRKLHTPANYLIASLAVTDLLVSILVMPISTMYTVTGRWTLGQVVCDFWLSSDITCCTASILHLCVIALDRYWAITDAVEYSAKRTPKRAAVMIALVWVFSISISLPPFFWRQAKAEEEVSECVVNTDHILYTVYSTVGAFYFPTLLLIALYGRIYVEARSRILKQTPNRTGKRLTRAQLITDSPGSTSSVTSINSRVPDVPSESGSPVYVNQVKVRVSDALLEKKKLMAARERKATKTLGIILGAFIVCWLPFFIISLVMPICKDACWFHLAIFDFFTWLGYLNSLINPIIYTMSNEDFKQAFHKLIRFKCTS

[14] = target: 5-hydroxytryptamine receptor 5A (Homo sapiens, UniProt P47898); experiment: Displacement of [3H] LSD from human recombinant 5-HT5A receptor expressed in CHO-K1 cells at 10 uM incubated for 60 mins by spectrophotometric analysis relative to control; assay type: cell-based
Sequence of 5-hydroxytryptamine receptor 5A (P47898 whole entry): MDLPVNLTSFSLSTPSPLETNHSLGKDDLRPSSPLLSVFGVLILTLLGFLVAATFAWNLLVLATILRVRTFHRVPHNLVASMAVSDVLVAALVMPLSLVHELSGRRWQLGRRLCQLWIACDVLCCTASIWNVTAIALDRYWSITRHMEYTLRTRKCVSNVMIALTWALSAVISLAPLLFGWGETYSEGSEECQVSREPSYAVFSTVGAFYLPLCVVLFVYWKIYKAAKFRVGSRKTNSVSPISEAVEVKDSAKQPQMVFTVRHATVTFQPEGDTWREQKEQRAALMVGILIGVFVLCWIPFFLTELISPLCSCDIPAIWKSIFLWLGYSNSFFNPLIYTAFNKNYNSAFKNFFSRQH

[15] = target: T1, 5-hydroxytryptamine receptor 7; experiment: Displacement of [3H] LSD from human recombinant 5-HT7 receptor expressed in CHO-K1 cells incubated for 120 mins by spectrophotometric analysis; assay type: cell-based
[16] = target: T3, Alpha-1A adrenergic receptor (Homo sapiens, UniProt P35348); experiment: Displacement of [3H] prazosin from human recombinant adrenergic alpha-1a receptor expressed in […] cells incubated for 60 mins by spectrophotometric analysis; assay type: cell-based
T3 sequence (P35348 whole entry): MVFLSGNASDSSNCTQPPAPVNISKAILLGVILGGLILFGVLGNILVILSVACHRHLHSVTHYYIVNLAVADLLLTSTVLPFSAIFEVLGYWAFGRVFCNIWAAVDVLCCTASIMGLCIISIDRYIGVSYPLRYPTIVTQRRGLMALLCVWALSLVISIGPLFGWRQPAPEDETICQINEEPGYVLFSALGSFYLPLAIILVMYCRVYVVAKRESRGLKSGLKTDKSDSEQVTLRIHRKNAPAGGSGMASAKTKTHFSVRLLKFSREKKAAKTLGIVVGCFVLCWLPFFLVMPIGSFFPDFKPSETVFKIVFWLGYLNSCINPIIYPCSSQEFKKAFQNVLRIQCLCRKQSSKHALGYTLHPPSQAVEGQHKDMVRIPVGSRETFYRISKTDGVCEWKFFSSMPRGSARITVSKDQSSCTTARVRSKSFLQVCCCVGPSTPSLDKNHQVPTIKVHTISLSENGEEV

[17] = Displacement of [3H] idazoxan from imidazoline receptor 2 (unknown origin) by spectrophotometric analysis; set-up: species or system Homo sapiens
[18] = target: T4, Neuronal acetylcholine receptor; alpha3/beta4 (Homo sapiens, UniProt P30926+P32297); experiment: Displacement of [125I]-epibatidine from human recombinant nAChR alpha3beta4 receptor expressed in CHO-K1 cells incubated for 60 mins by spectrophotometric analysis; assay type: cell-based
T4 sequence (P30926 whole entry): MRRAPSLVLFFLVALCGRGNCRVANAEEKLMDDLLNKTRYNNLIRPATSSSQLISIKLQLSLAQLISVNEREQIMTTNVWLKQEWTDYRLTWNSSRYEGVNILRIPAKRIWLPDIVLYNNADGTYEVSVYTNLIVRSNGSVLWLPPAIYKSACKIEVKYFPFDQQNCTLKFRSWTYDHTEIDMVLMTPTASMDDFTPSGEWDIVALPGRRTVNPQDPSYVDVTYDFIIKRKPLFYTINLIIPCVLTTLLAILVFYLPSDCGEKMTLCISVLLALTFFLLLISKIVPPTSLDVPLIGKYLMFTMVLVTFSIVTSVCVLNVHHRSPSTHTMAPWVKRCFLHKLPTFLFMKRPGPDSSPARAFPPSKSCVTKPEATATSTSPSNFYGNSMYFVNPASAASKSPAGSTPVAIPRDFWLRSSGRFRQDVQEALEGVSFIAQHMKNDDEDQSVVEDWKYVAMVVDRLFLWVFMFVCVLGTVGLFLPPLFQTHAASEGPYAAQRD
T4 sequence (P32297 whole entry): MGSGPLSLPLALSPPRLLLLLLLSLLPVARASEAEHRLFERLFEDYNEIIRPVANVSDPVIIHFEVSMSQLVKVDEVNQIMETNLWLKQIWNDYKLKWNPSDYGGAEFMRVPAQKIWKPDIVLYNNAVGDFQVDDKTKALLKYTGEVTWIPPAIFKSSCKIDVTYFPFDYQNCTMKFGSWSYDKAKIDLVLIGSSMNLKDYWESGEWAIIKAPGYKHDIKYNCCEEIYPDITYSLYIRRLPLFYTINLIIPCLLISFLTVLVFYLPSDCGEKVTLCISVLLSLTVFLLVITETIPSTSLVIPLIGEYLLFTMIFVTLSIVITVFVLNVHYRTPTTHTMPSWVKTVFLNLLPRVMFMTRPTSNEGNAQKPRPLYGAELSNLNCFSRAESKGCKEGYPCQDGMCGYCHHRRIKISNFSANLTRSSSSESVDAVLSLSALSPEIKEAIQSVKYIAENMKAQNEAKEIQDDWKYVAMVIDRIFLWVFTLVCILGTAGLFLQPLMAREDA

[19] = target: Amine oxidase [flavin-containing] A (Homo sapiens, UniProt P21397); experiment: Inhibition of human recombinant MAO-A expressed in insect cells assessed as inhibition of 4-hydroxyquinoline formation using kynuramine as substrate incubated for 75 mins by spectrophotometric analysis; set-up: species or system Insect cell
Sequence of Amine oxidase [flavin-containing] A (P21397 whole entry): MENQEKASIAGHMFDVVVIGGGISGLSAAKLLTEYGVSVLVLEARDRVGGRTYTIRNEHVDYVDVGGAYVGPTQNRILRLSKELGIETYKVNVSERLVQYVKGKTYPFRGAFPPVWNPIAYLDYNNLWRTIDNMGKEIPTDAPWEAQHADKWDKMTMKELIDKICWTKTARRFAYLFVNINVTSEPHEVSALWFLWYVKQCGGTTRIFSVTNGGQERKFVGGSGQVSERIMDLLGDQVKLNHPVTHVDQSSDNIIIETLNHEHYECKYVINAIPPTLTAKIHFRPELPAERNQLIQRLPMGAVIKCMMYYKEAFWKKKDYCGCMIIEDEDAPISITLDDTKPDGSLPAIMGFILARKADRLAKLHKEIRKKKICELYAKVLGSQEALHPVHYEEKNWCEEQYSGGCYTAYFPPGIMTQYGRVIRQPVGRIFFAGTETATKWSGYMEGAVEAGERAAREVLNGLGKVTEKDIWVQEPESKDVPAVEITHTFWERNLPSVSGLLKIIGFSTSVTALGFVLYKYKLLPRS

[20] = target: T2, 5-hydroxytryptamine receptor 1B; experiment: Displacement of [3H] GR125743 from human recombinant 5-HT1B receptor expressed in […] cells assessed as inhibition constant incubated for 90 mins by spectrophotometric analysis; assay type: cell-based
[21] = target: 5-hydroxytryptamine receptor 2A (Homo sapiens, UniProt P28223); experiment: Displacement of [3H] ketanserin from human recombinant 5-HT2A receptor expressed in CHO-K1 cells assessed as inhibition constant incubated for 60 mins by spectrophotometric analysis
Sequence of 5-hydroxytryptamine receptor 2A (P28223 whole entry): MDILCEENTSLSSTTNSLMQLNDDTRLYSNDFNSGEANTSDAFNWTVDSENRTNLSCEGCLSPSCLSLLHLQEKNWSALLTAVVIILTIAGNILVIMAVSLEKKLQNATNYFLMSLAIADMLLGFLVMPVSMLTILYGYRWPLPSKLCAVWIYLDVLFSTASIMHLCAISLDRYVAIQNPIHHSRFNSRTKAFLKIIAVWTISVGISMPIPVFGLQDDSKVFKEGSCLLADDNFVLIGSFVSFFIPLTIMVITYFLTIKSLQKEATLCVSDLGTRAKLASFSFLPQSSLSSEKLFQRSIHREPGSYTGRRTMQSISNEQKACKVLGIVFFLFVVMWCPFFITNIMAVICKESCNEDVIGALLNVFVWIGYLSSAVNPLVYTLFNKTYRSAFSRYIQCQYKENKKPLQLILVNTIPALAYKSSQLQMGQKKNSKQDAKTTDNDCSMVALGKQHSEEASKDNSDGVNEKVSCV

[22] = target: T1, 5-hydroxytryptamine receptor 7; experiment: Displacement of [3H] LSD from human recombinant 5-HT7 receptor expressed in CHO-K1 cells assessed as inhibition constant incubated for 120 mins by spectrophotometric analysis; assay type: cell-based
[23] = target: T3, Alpha-1A adrenergic receptor; experiment: Displacement of [3H] prazosin from human recombinant adrenergic alpha-1a receptor expressed in […] cells assessed as inhibition constant incubated for 60 mins by spectrophotometric analysis; assay type: cell-based
[24] = target: T4, Neuronal acetylcholine receptor; alpha3/beta4; experiment: Displacement of [125I]-epibatidine from human recombinant nAChR alpha3beta4 receptor expressed in CHO-K1 cells assessed as inhibition constant incubated for 60 mins by spectrophotometric analysis; assay type: cell-based
[25] = target: Sigma non-opioid intracellular receptor 1 (Homo sapiens) (UniProt Q99720); experiment: Displacement of [3H] pentazocine from human sigma 1 receptor expressed in human Jurkat cells at <=10 uM incubated for 120 mins by spectrophotometric analysis; assay type: cell-based
Sequence of Sigma non-opioid intracellular receptor 1 (Homo sapiens) (Q99720 whole entry): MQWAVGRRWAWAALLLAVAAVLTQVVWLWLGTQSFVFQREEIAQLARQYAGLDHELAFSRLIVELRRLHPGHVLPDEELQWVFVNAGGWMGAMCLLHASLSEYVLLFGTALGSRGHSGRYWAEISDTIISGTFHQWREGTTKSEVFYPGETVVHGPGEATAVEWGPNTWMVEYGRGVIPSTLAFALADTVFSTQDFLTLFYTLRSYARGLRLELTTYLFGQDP

Structure (SMILES): CN(C)CCc1c[nH]c2ccccc12.O=C(O)/C=C/C(=O)O
- inhibition [1]: 90.4%
- inhibition ([1]; tested as the 2H-labelled form): 95.5%
- inhibition [2]: 95.5%
- inhibition ([2]; tested as the 2H-labelled form): 96.5%
- inhibition [3]: 54.1%
- inhibition ([3]; tested as the 2H-labelled form): 63.2%
- half-life [4]: 8.3 min
- hepatocyte CLint [5]: 16.6 µL/min/1e6 cells
- logD at 1.583 h [6]: 0.15
- inhibition [7]: 96%
- inhibition ([7]; tested as the 2H-labelled form): 97.6%
- inhibition [8]: 88.8%
- inhibition ([8]; tested as the 2H-labelled form): 91.4%
- inhibition [9]: 85.8%
- inhibition ([9]; tested as the 2H-labelled form): 87.2%
- inhibition [10]: 86.1%
- inhibition ([10]; tested as the 2H-labelled form): 86.2%
- inhibition [11]: 85.1%
- inhibition ([11]; tested as the 2H-labelled form): 85.1%
- inhibition [12]: 81.1%
- inhibition ([12]; tested as the 2H-labelled form): 79.8%
- inhibition [13]: 73.1%
- inhibition ([13]; tested as the 2H-labelled form): 75.5%
- inhibition [14]: 72.7%
- inhibition ([14]; tested as the 2H-labelled form): 70.2%
- IC50 [15]: 120 nM
- IC50 [16]: 580 nM
- IC50 [17]: 1930 nM
- IC50 [18]: 4200 nM
- IC50 [19]: 1180 nM
- Ki [20]: 1840 nM
- Ki [21]: 40 nM
- Ki [22]: 70 nM
- Ki [23]: 280 nM
- Ki [24]: 3030 nM
- inhibition [25]: inactive
- inhibition ([25]; tested as the 2H-labelled form): inactive

Structure (SMILES): O=C(O)/C=C/C(=O)O.[2H]C([2H])(Cc1c[nH]c2ccccc12)N(C)C
- half-life [4]: 85.1 min
- hepatocyte CLint [5]: 7.3 µL/min/1e6 cells
- logD at 1.583 h [6]: 0.11
- IC50 [15]: 90 nM
- IC50 [16]: 990 nM
- IC50 [17]: 2600 nM
- IC50 [18]: 4400 nM
- IC50 [19]: 1500 nM
- Ki [20]: 1520 nM
- Ki [21]: 60 nM
- Ki [22]: 50 nM
- Ki [23]: 480 nM
- Ki [24]: 3180 nM
